Measurements from the NIST ThermoML archive (doi:10.1016/j.tca.2012.02.002).

Test: molar heat capacity at constant pressure
Details: 101.33 kPa, Crystal

O=P([O-])([O-])[O-].[Er+3] [erbium phosphate]
Details	molar heat capacity at constant pressure [J/K/mol]
48.02 K, Vacuum adiabatic calorimetry	18.68
49.64 K, Vacuum adiabatic calorimetry	19.56
50 K, Drop calorimetry	19.7
51.27 K, Vacuum adiabatic calorimetry	20.45
52.9 K, Vacuum adiabatic calorimetry	21.35
54.54 K, Vacuum adiabatic calorimetry	22.23
55 K, Drop calorimetry	22.45
56.17 K, Vacuum adiabatic calorimetry	23.13
57.81 K, Vacuum adiabatic calorimetry	24.03
59.46 K, Vacuum adiabatic calorimetry	24.96
60 K, Drop calorimetry	25.28
61.11 K, Vacuum adiabatic calorimetry	25.9
62.76 K, Vacuum adiabatic calorimetry	26.86
64.41 K, Vacuum adiabatic calorimetry	27.81
65 K, Drop calorimetry	28.13
66.06 K, Vacuum adiabatic calorimetry	28.75
67.72 K, Vacuum adiabatic calorimetry	29.67
69.38 K, Vacuum adiabatic calorimetry	30.58
70 K, Drop calorimetry	30.96
71.24 K, Vacuum adiabatic calorimetry	31.56
73.31 K, Vacuum adiabatic calorimetry	32.73
75 K, Drop calorimetry	33.73
75.38 K, Vacuum adiabatic calorimetry	33.9
77.44 K, Vacuum adiabatic calorimetry	35.09
78.64 K, Vacuum adiabatic calorimetry	35.5
79.51 K, Vacuum adiabatic calorimetry	36.27
80 K, Drop calorimetry	36.43
81 K, Vacuum adiabatic calorimetry	37.03
81.57 K, Vacuum adiabatic calorimetry	37.33
83.05 K, Vacuum adiabatic calorimetry	38
83.64 K, Vacuum adiabatic calorimetry	38.24
85 K, Drop calorimetry	39.03
85.11 K, Vacuum adiabatic calorimetry	38.94
85.72 K, Vacuum adiabatic calorimetry	39.22
87.17 K, Vacuum adiabatic calorimetry	40.21
87.79 K, Vacuum adiabatic calorimetry	40.58
89.22 K, Vacuum adiabatic calorimetry	41.36
89.86 K, Vacuum adiabatic calorimetry	41.58
90 K, Drop calorimetry	41.53
91.28 K, Vacuum adiabatic calorimetry	42.3
91.94 K, Vacuum adiabatic calorimetry	42.51
93.33 K, Vacuum adiabatic calorimetry	43.21
94.02 K, Vacuum adiabatic calorimetry	43.42
95 K, Drop calorimetry	43.93
95.39 K, Vacuum adiabatic calorimetry	44.16
96.11 K, Vacuum adiabatic calorimetry	44.4
97.45 K, Vacuum adiabatic calorimetry	45.11
99.5 K, Vacuum adiabatic calorimetry	46.06
100 K, Drop calorimetry	46.24
102.17 K, Vacuum adiabatic calorimetry	47.11
105.46 K, Vacuum adiabatic calorimetry	48.46
108.74 K, Vacuum adiabatic calorimetry	50.01
110 K, Drop calorimetry	50.59
112.02 K, Vacuum adiabatic calorimetry	51.4
115.31 K, Vacuum adiabatic calorimetry	52.75
118.6 K, Vacuum adiabatic calorimetry	54.1
120 K, Drop calorimetry	54.66
121.89 K, Vacuum adiabatic calorimetry	55.38
125.18 K, Vacuum adiabatic calorimetry	56.65
128.48 K, Vacuum adiabatic calorimetry	57.9
130 K, Drop calorimetry	58.5
131.77 K, Vacuum adiabatic calorimetry	59.15
135.06 K, Vacuum adiabatic calorimetry	60.36
138.35 K, Vacuum adiabatic calorimetry	61.56
140 K, Drop calorimetry	62.15
141.64 K, Vacuum adiabatic calorimetry	62.75
144.92 K, Vacuum adiabatic calorimetry	63.93
148.21 K, Vacuum adiabatic calorimetry	65.06
150 K, Drop calorimetry	65.63
151.5 K, Vacuum adiabatic calorimetry	66.19
154.79 K, Vacuum adiabatic calorimetry	67.31
158.07 K, Vacuum adiabatic calorimetry	68.34
160 K, Drop calorimetry	68.95
161.36 K, Vacuum adiabatic calorimetry	69.45
164.64 K, Vacuum adiabatic calorimetry	70.45
167.92 K, Vacuum adiabatic calorimetry	71.48
170 K, Drop calorimetry	72.09
171.18 K, Vacuum adiabatic calorimetry	72.5
174.46 K, Vacuum adiabatic calorimetry	73.47
177.73 K, Vacuum adiabatic calorimetry	74.42
180 K, Drop calorimetry	75.06
